This is an account of results in patent EP4206196A1, “PYRIMIDINE SUBSTITUTED DERIVATIVES AS TYK2 INHIBITORS” (Almirall S.A., priority 2021, dated 2023).

The target in assay [1] is T1, TYK2 (JH2domain-pseudokinase) (Homo sapiens, UniProt P29597).
T1 construct: TYK2 (JH2domain-pseudokinase)-tagged T7 phage strains were prepared in an E. coli host derived from the BL21 strain; made in house; host or cells: E. coli BL21-derived host (T7 phage) or HEK-293 cells
The assay can be described thus: TYK2 JH2 domain binding assay (KINOMEscan). The gist of the method:
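Competition binding of DNA-tagged TYK2 JH2 pseudokinase domain against immobilised affinity ligand, 1 h at room temperature in SeaBlock/PBS/Tween/DTT buffer with about 1% DMSO. Bound kinase eluted and quantified by qPCR. Kd taken from 11-point 3-fold series, usually 30,000 nM top, fitted by Levenberg-Marquardt nonlinear least squares.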

Assay [2] relates to STAT1/3 through TYK2/JAK1. The assay can be described thus: IFNa induced STAT phosphorylation in HEK293 cells (SIE-bla reporter gene). Format: cell-based. The following applies: Homo sapiens, HEK293; HEK293T-sie-bla cells, IFNa at EC80, 4 hours; read-out: Inhibition of IFNa induced STAT phosphorylation HEK293 cells IC50. The gist of the method:
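HEK293T cells carrying a SIE-driven β-lactamase reporter were co-treated with compound (1/5 serial dilution, 10 points, 0.1% DMSO final) and IFNa at EC80 for 4 h at 37°C. β-Lactamase substrate was added to stop the stimulation, followed by overnight dark incubation and FRET read. IC50 from a four-parameter logistic fit.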
(Reporter assays use an easily measured gene product as a stand-in for the process of interest.)

A further assay has as its system STAT6 through JAK1/JAK3. In words: IL4 induced STAT phosphorylation in Ramos cells (STAT6-bla reporter gene). Type of assay: cell-based. The following applies: Homo sapiens, Ramos, compound concentration 5 µM. As for the experimental part: Stimulation of RAMOS cells with interleukine IL-4 activates the signaling pathway of STAT6 through JAK1/JAK3. In this assay, measurement of the activity of the reporter gene β-lactamase expression was used as the readout.
Ramos STAT6-bla RA-1 cell line were purchased from Life Technologies (ref. #K1243) and cultured as specified by the provider. A number of 30.000 cells per well (35 µl) were plated in a 384-well plate (Corning ref.# 3712) and cultured overnight at 37°C with 5% CO2 in a complete Optimem media (Life Technologies ref. #11058-021) containing 556 µg/mL CD40 (Life Technologies ref. #PHP0025), 0.5% (v/v) heat inactivated FBS (Life Technologies ref. #10082-147), 10 µM non-essential aminoacids NEAA (Sigma ref. #M7145), 100 µM Sodium Pyruvate (Gibco ref. #11360-039) and 100 U/mL Penicillin (Sigma ref. #P0781). Compounds were initially dissolved in 100% DMSO. Compound curves were then prepared using a 1/5 serial dilution (10 dilutions). The dilutions were directly diluted in complete Optimem media without CD40 at 40-fold their final concentration in 20% DMSO. IL-4 initial solution (Prepotech ref. #200-04) was prepared at 10-fold its EC80 in complete Optimem media without CD40. Compounds and IL-4 were added simultaneously to the wells with cells and incubated during 4 hours at 37°C (the final DMSO was 0.1%). The β-lactamase substrate (LifeTechnologies ref.#K1138) was prepared at 6-fold its final concentration as specified by the provider. Then 10 µL of the mixture was added to the wells to stop the stimulation. Plate was left in the dark over-night. Then a FRET reading was performed on an appropriate plate reader.
All experiments were analysed using an ExcelFit template and the four-parameter log equation. As % vs compound concentration. TABLE 3: Inhibition of IL4 induced STAT phosphorylation in Ramos cells.

T1 sequence (P29597 589-875 limits assumed): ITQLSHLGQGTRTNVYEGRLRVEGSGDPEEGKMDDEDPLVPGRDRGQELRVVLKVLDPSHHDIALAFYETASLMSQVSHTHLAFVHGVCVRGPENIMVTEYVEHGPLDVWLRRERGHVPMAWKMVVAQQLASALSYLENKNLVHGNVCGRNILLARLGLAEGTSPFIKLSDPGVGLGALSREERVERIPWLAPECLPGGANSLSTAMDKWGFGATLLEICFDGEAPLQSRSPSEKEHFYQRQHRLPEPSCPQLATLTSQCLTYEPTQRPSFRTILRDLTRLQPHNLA

For the compound `Cc1cc(Nc2cc(Nc3ccc(-c4cnn(C)c4C)cc3N(C)S(C)(=O)=O)ncn2)nc(C)n1` [Example 25, N-[5-(1,5-dimethylpyrazol-4-yl)-2-[[6-[(2,6-dimethylpyrimidin-4-yl)amino]pyrimidin-4-yl]amino]phenyl]-N-methyl-methanesulfonamide], the Kd (commonly the concentration at which binding is half-saturated) in assay [1] was less than 0.2 nM. For the same compound, the IC50 (as a rule, the midpoint of a concentration-inhibition curve) in assay [2] was less than 10 nM. Also, at 5 µM the inhibition in the assay on STAT6 through JAK1/JAK3 was 57%.

Regarding `CN(c1ccccc1Nc1cc(Nc2cccc(C#N)n2)ncn1)S(C)(=O)=O` [Example 32, N-[2-[[6-[(6-cyano-2-pyridyl)amino]pyrimidin-4-yl]amino]phenyl]-N-methyl-methanesulfonamide], in assay [1], the equilibrium dissociation constant (Kd) was less than 0.2 nM. Moreover, the IC50 in assay [2] is less than 10 nM. In addition, the inhibition (in general, the relative decrease from the control value, in per cent) at 5 µM in the assay with STAT6 through JAK1/JAK3 came to 70%.

The compound `Cc1c(-c2cnc(Nc3cc(NC(=O)C4CC4)ncn3)c(N(C)S(C)(=O)=O)c2)cnn1C` [Example 139, N-[6-[[5-(1,5-dimethylpyrazol-4-yl)-3-[methyl(methylsulfonyl)amino]-2-pyridyl]amino]pyrimidin-4-yl]cyclopropanecarboxamide] registered a Kd in assay [1] of less than 0.2 nM. The IC50 in assay [2] was less than 10 nM. The compound further yielded an inhibition at 5 µM in the assay with STAT6 through JAK1/JAK3 of 28%.

`Cc1cc(Nc2cc(Nc3ncc(-c4cnn(C)c4C)c(C)c3S(C)(=O)=O)ncn2)nc(C)n1` [Example 153, N6-[5-(1,5-dimethylpyrazol-4-yl)-4-methyl-3-methylsulfonyl-2-pyridyl]-N4-(2,6-dimethylpyrimidin-4-yl)pyrimidine-4,6-diamine] yielded a dissociation constant (Kd) in assay [1] of less than 0.2 nM. In addition, the IC50 in assay [2] is less than 10 nM.

In assay [1], `COc1c(Nc2cc(Nc3cc(C)nc(C)n3)ncn2)cccc1-c1nc(C)n(C)n1` [Example 39, N6-(2,6-dimethylpyrimidin-4-yl)-N4-[3-(1,5-dimethyl-1,2,4-triazol-3-yl)-2-methoxy-phenyl]pyrimidine-4,6-diamine] registered a Kd of 0.2 to 1 nM. Besides, in assay [2], the IC50 lay in the range of 100 to 1000 nM.

`COc1cc(-c2cnn(C)c2)c(C)nc1Nc1cc(Nc2cc(C)ncn2)ncn1` [Example 165, N4-[3-methoxy-6-methyl-5-(1-methylpyrazol-4-yl)-2-pyridyl]-N6-(6-methylpyrimidin-4-yl)pyrimidine-4,6-diamine] showed a Kd in assay [1] of 0.2 to 1 nM. In addition, in assay [2], the IC50 was in the range of 100 to 1000 nM.

Take `COc1ccccc1Nc1cc(NC(=O)C2CC2)ncn1` [Example 2, N-[6-(2-methoxyanilino)pyrimidin-4-yl]cyclopropanecarboxamide]: in assay [1], the Kd was more than 10 nM. The IC50 in assay [2] was more than 1000 nM.

On to `COc1cc(C#N)cnc1Nc1cc(Nc2cc(C)nc(C)n2)ncn1` [Example 27, 6-[[6-[(2,6-dimethylpyrimidin-4-yl)amino]pyrimidin-4-yl]amino]-5-methoxy-pyridine-3-carbonitrile], for which the Kd in assay [1] was more than 10 nM. The IC50 in assay [2] is more than 1000 nM.

`COCCn1cnc(-c2cccc(Nc3cc(Nc4cc(C)nc(C)n4)ncn3)c2OC)n1` [Example 44, N6-(2,6-dimethylpyrimidin-4-yl)-N4-[2-methoxy-3-[1-(2-methoxyethyl)-1,2,4-triazol-3-yl]phenyl]pyrimidine-4,6-diamine] had a Kd in assay [1] of 0.2 to 1 nM. Also, the 50% inhibitory concentration (IC50) in assay [2] lay within 10 to 100 nM.

In the case of `Cc1cc(Nc2cc(Nc3ncc(-c4ocnc4C)cc3N(C)S(C)(=O)=O)ncn2)nc(C)n1` [Example 170, N-[2-[[6-[(2,6-dimethylpyrimidin-4-yl)amino]pyrimidin-4-yl]amino]-5-(4-methyl-1,3-oxazol-5-yl)pyridin-3-yl]-N-methylmethanesulfonamide], in assay [1], the Kd is less than 0.2 nM. In assay [2], the IC50 lay in the range of 10 to 100 nM.

Turning to `COc1c(Nc2cc(Nc3cc(C)nc(C)n3)ncn2)ncc(-c2cnn(C)c2C)c1C` [Example 141, N6-[5-(1,5-dimethylpyrazol-4-yl)-3-methoxy-4-methyl-2-pyridyl]-N4-(2,6-dimethylpyrimidin-4-yl)pyrimidine-4,6-diamine], the Kd in assay [1] is less than 0.2 nM. For the same compound, the IC50 in assay [2] lay within 10 to 100 nM.

In assay [1], `COc1c(Nc2cc(Nc3cc(C)nc(C)n3)ncn2)cccc1-c1nc(C)n(C2COC2)n1` [Example 49, N4-(2,6-dimethylpyrimidin-4-yl)-N6-[2-methoxy-3-[5-methyl-1-(oxetan-3-yl)-1,2,4-triazol-3-yl]phenyl]pyrimidine-4,6-diamine] registered a Kd of 0.2 to 1 nM. Further, the IC50 in assay [2] was more than 1000 nM.

For the compound `Cc1cc(Nc2cc(Nc3cc(F)ccc3N(C)S(C)(=O)=O)ncn2)nc(C)n1` [Example 75, N-[2-[[6-[(2,6-dimethylpyrimidin-4-yl)amino]pyrimidin-4-yl]amino]-4-fluorophenyl]-N-methylmethanesulfonamide], the Kd in assay [1] was less than 0.2 nM. Also, the IC50 in assay [2] lay within 10 to 100 nM.

Turning to `COc1c(Nc2cc(Nc3cc(C)nc(C)n3)ncn2)ccc(F)c1F` [Example 19, N4-(3,4-difluoro-2-methoxy-phenyl)-N6-(2,6-dimethylpyrimidin-4-yl)pyrimidine-4,6-diamine], the Kd in assay [1] fell in the range of 1 to 10 nM. In addition, in assay [2], the IC50 is more than 1000 nM.

In turn, `COc1c(C)cccc1Nc1cc(Nc2cnn(C3CCOCC3)c2)ncn1` [Example 9, N4-(2-methoxy-3-methyl-phenyl)-N6-(1-tetrahydropyran-4-ylpyrazol-4-yl)pyrimidine-4,6-diamine] yielded a Kd in assay [1] of more than 10 nM. Further, in assay [2], the IC50 was more than 1000 nM.

Regarding `Cc1cc(Nc2cc(Nc3ccccc3N(C)S(=O)(=O)C(F)(F)F)ncn2)nc(C)n1` [Example 71, N-[2-[[6-[(2,6-dimethylpyrimidin-4-yl)amino]pyrimidin-4-yl]amino]phenyl]-1,1,1-trifluoro-N-methyl-methanesulfonamide], the Kd in assay [1] is less than 0.2 nM. The IC50 in assay [2] lay in the range of 10 to 100 nM.

`Cc1cc(Nc2cc(Nc3nc(C)ccc3S(C)(=O)=O)ncn2)ncn1` [Example 156, N6-(6-methyl-3-methylsulfonyl-2-pyridyl)-N4-(6-methylpyrimidin-4-yl)pyrimidine-4,6-diamine] came in with a Kd in assay [1] of 1 to 10 nM. In addition, the IC50 in assay [2] is more than 1000 nM.

Consider `C=Cc1ccc(Nc2cc(Nc3cc(C)nc(C)n3)ncn2)c(N(C)S(C)(=O)=O)c1` [Example 108, N-[2-[[6-[(2,6-dimethylpyrimidin-4-yl)amino]pyrimidin-4-yl]amino]-5-vinyl-phenyl]-N-methyl-methanesulfonamide], for which the Kd in assay [1] was less than 0.2 nM. Moreover, in assay [2], the IC50 is less than 10 nM.

Take `Cc1ccc(Nc2cc(Nc3cc(C)nc(C)n3)ncn2)c(N(C)S(C)(=O)=O)c1` [Example 69, N-[2-[[6-[(2,6-dimethylpyrimidin-4-yl)amino]pyrimidin-4-yl]amino]-5-methyl-phenyl]-N-methyl-methanesulfonamide]: the Kd in assay [1] is less than 0.2 nM. For the same compound, the IC50 in assay [2] was 10 to 100 nM.

For `Cc1cc(Nc2cc(Nc3ncc(-c4ncc(C)n4C)cc3N(C)S(C)(=O)=O)ncn2)nc(C)n1` [Example 140, N-[5-(1,5-dimethylimidazol-2-yl)-2-[[6-[(2,6-dimethylpyrimidin-4-yl)amino]pyrimidin-4-yl]amino]-3-pyridyl]-N-methyl-methanesulfonamide], the Kd in assay [1] was less than 0.2 nM. In assay [2], the IC50 lay within 10 to 100 nM.

`Cc1cc(Nc2cc(Nc3ccccc3S(=O)(=O)N3CCCCC3)ncn2)nc(C)n1` [Example 73, N6-(2,6-dimethylpyrimidin-4-yl)-N4-[2-(1-piperidylsulfonyl)phenyl]pyrimidine-4,6-diamine]: in assay [1], the Kd was more than 10 nM. For the same compound, the IC50 in assay [2] was more than 1000 nM.

Turning to `COc1ccc(C)nc1Nc1cc(Nc2cc(C)nc(C)n2)ncn1` [Example 8, N4-(2,6-dimethylpyrimidin-4-yl)-N6-(3-methoxy-6-methyl-2-pyridyl)pyrimidine-4,6-diamine], the Kd in assay [1] was more than 10 nM. In assay [2], the IC50 is more than 1000 nM.

In turn, `Cc1cc(Nc2cc(Nc3ncc(-c4cc(C(F)(F)F)nn4C)cc3N(C)S(C)(=O)=O)ncn2)nc(C)n1` [Example 87, N-[2-[[6-[(2,6-dimethylpyrimidin-4-yl)amino]pyrimidin-4-yl]amino]-5-[2-methyl-5-(trifluoromethyl)pyrazol-3-yl]-3-pyridyl]-N-methyl-methanesulfonamide] yielded a Kd in assay [1] of 0.2 to 1 nM. In addition, the IC50 in assay [2] was more than 1000 nM.
